Source: publication PMC4389562, “Antigiardial activity of novel triazolyl-quinolone-based chalcone derivatives: when oxygen makes the difference” (Frontiers in Microbiology, 2015)
Read-outs that look alike come from different tables or passages of the source.

Key:
[1] = system: Giardia intestinalis trophozoites; test: Drug susceptibility of Giardia trophozoites, ATP level by luminescence (BacTiter-Glo), 48 h incubation, anaerobic or microaerobic; assay type: cell-based, Giardia intestinalis strain WB clone C6; details: for IC50: 48 h, 37 °C, ATP level; for selectivity ratio at 48 h: human (Caco-2 cells) versus Giardia intestinalis, Caco-2, SI = IC50,Caco-2/IC50,Giardia
Protocol: Trophozoites of G. intestinalis strain WB clone C6 (ATCC No. 50803TM) were cultured axenically at 37^∘C in 25-cm^2 flasks containing Diamond's TYI-S-33 medium supplemented with 10% bovine calf serum, 1 mg/mL bovine bile, 0.1 g/L streptomycin and 100 U/mL penicillin. Typically, 50 ml medium was inoculated with 25 × 10^6 cells and after 2 days cells were harvested by chilling the flasks on ice for 30 min for drug susceptibility assays. […] The assays were performed following the procedure described in [Bahadur et al. (2014)], using sterile 96-well white clear-bottom plates. […] Each drug concentration was tested in at least six replicates. MTZ was used as an internal positive control in the assay. The microtiter plates were then incubated at 37^∘C under anaerobic or microaerobic conditions, ensured by the Anaerocult® A or the Anaerocult® […] (Merck), respectively. […] Following 48 h incubation with the compound to be tested, 100 μL of the BacTiter-Glo^TM Microbial Cell Viability Assay System reagent (Promega) was added to each well for one-step lysis and ATP level detection. Plates were then incubated at room temperature for 15 min and ATP levels finally detected by luminescence on a plate reader (Wallac Victor3 1420 Multilabel Counter, PerkinElmer). Luminometric data were calibrated using ATP standard curves and normalized to the ATP level measured in control DMSO-treated cells (taken as 100%). The measured ATP level percentage was plotted as a function of the compound concentration and the half-maximal inhibitory concentration (IC50) was obtained by fitting the resulting titration profile to the Hill equation ([Goutelle et al., 2008]). The selectivity index (SI) of the compounds was then calculated as the ratio between the IC50 value measured on human cells over the value determined on Giardia trophozoites (SI = IC50,Caco-2/IC50,Giardia). The antigiardial activity of the novel compounds 23-67 was tested under both anaerobic and microaerobic conditions. According to ([Dunn et al., 2010]; [Bahadur et al., 2014]), susceptibility of Giardia trophozoites to increasing concentrations of each compound was assessed based on ATP level determination by luminescence. Dose-response curves for each compound were obtained after 48 h-incubation and compared to the data collected under identical conditions with MTZ, the drug of choice for treatment of giardiasis. […] Typical dose-response curves are shown in Figure 2, whereas the IC50 values measured for the synthetic compounds and MTZ under anaerobic and microaerobic conditions are reported in Table 1. […] Under anaerobic conditions, 18 out of the 45 synthetic compounds were as effective as MTZ or more under identical conditions (see Table 1).

Caco-2 cells = test: Counter-screen on Caco-2 cells, ATP level by luminescence (ATPlite), 48 h incubation; assay type: cell-based, human; details: atmospheric O2, 5% CO2, 48 h, 37 °C
Protocol: Trophozoites of G. intestinalis strain WB clone C6 (ATCC No. 50803TM) were cultured axenically at 37^∘C in 25-cm^2 flasks containing Diamond’s TYI-S-33 medium supplemented with 10% bovine calf serum, 1 mg/mL bovine bile, 0.1 g/L streptomycin and 100 U/mL penicillin. […] Human epithelial colorectal adenocarcinoma (Caco-2) cells were grown in 25-cm^2 flasks in EMEM supplemented with 1% (v/v) non-essential amino acids, 2 mM glutamine, 5% (v/v) fetal bovine serum, 0.1 g/L streptomycin, and 100 U/mL penicillin.
Cells were detached with 0.5% trypsin-EDTA and seeded in sterile 96-well white clear-bottom plates at the same density of Giardia trophozoites and at increasing concentration of the compound to be tested, as described above. The assays were carried out exactly as reported for the Giardia trophozoites, except that the plates were incubated (still at 37^∘C) at atmospheric O2 level, 5% CO2, and 95% humidity. Each drug concentration was tested in at least seven replicates. MTZ was used as an internal […] control in the assay. Following 48 h incubation with each compound, according to the manufacturer instructions, 100 μL of the ATPlite^TM luminescence assay system (Perkin Elmer) was added to each well for one-step lysis and ATP level detection by luminescence.
Luminometric data were calibrated using ATP standard curves and normalized to the ATP level measured in control DMSO-treated cells (taken as 100%). The measured ATP level percentage was plotted as a function of the compound concentration and the half-maximal inhibitory concentration (IC50) was obtained by fitting the resulting titration profile to the Hill equation ([Goutelle et al., 2008]). The selectivity index (SI) of the compounds was then calculated as the ratio between the IC50 value measured on human cells over the value determined on Giardia trophozoites (SI = IC50,Caco-2/IC50,Giardia).
Selectivity of the newly synthesized compounds toward Giardia was assessed by running a counter-screen on human epithelial Caco-2 cells. […] This allowed us to calculate the compounds SI, defined as the ratio between the IC50 value measured on human cells over the value determined on Giardia trophozoites.

Giardia = system: Giardia; design: method as in Cedillo-Rivera and Munoz, 1992; details: anaerobic conditions; ref Cedillo-Rivera and Munoz, 1992; read-out: IC50 against Giardia under anaerobic conditions; cited from earlier work
[2] = Giardia duodenalis, anaerobic conditions (Anaerocult A), read-out: Giardia (anaerobiosis) IC50
[3] = Giardia duodenalis, microaerobic conditions (~5% O2, Anaerocult C), read-out: Giardia (microaerobiosis) IC50
[4] = Giardia under anaerobiosis, read-out: Selectivity (IC50,Caco/IC50,Giardia) Anaerobiosis
[5] = Giardia under microaerobiosis, read-out: Selectivity (IC50,Caco/IC50,Giardia) Microaerobiosis

| SMILES | IC50 [1, 2] | IC50 [1, 3] | IC50 ([1]; anaerobic conditions (Anaerocult A), read-out: Giardia (anaerobiosis) IC50) | IC50 (Caco-2 cells; Homo sapiens, Caco-2, 48 h) | IC50 (Caco-2 cells) | melting point | selectivity ratio at 48 h [1, 4] | selectivity ratio at 48 h [1, 5] | IC50 (Giardia) |
| --- | --- | --- | --- | --- | --- | --- | --- | --- | --- |
| COc1ccccc1C(=O)/C=C/c1cc2ccccc2n(Cc2cn(-c3ccccc3)nn2)c1=O [Compound 65] | 2.2 to 3.2 µM | 0.4 µM | 1.6 µM | ≥ 40 µM | ≥ 50 µM | 210 to 212 °C | – | – | – |
| COc1cccc(C(=O)/C=C/c2cc3ccccc3n(Cc3cn(-c4ccccc4)nn3)c2=O)c1 [Compound 66] | 3.2 µM | 1.6 µM | – | ≥ 40 µM | ≥ 50 µM | 224 to 226 °C | > 15 | > 30 | – |
| COc1ccc(C(=O)/C=C/c2cc3ccccc3n(Cc3cn(-c4ccccc4)nn3)c2=O)cc1 [Compound 67] | 5.9 µM | 0.8 µM | – | ≥ 100 µM | – | 215 to 217 °C | ≥ 16 | ≥ 125 | – |
| CCCSc1ccc2nc(NC(=O)OC)[nH]c2c1 [albendazole] | – | – | – | – | – | – | – | – | < 0.1 µM |
